Ki data for 24 compounds are collected here from patent US20260285855A1, “HETEROARYL DERIVATIVES AS DDRS INHIBITORS” (CHIESI FARMACEUTICI S.P.A., priority 2023, published 2026).

In one experiment the target is T1, DDR1 (Homo sapiens, UniProt Q08345).
T1 construct: purchased Carna Biosciences
As to the kind of experiment: LanthaScreen Europium Kinase Binding assay, DDR1. The note with it: 5 nM DDR1, 20 nM Kinase Tracer 178, 1 h at rt; Ki from IC50 by Cheng-Prusoff; read-out: Ki DDR1. On the procedure:
(§1) DDR1 and DDR2 binding assays were performed using Life Technologies LanthaScreen™ Europium Kinase Binding assay. […] IC50 values were determined in GraphPad Prism 7.0 software, using 4 parameter model: log (inhibitor) vs. response. IC50 values were converted in Ki using the Cheng-Prusoff equation (Ki-IC50/(1+ [Tracer]/Kd).

The next experiment concerns the target T2, DDR2 (Homo sapiens, UniProt Q16832).
T2 construct: purchased Life Technologies
T2 sequence (Q16832 22-855): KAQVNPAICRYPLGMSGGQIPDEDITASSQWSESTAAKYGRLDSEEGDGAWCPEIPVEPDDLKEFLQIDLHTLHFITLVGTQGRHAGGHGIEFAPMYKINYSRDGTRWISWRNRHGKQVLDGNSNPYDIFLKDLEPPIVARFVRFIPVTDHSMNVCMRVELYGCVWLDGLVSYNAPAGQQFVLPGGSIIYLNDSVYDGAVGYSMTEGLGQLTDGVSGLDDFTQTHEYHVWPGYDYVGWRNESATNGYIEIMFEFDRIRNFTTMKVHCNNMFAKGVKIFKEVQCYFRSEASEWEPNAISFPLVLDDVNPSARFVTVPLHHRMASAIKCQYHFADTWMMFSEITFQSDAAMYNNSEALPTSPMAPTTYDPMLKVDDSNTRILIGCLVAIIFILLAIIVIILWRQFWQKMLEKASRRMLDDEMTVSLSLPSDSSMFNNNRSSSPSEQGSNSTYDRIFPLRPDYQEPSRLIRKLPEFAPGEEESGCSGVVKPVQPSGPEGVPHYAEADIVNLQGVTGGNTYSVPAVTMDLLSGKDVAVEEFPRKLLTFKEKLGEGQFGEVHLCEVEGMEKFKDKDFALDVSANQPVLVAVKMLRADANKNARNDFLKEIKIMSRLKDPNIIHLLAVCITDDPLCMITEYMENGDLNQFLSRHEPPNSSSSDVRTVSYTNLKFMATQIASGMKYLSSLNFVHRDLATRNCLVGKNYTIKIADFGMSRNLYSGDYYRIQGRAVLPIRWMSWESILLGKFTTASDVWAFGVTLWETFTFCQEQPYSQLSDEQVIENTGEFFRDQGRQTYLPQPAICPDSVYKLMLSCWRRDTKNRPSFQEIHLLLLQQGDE
Kind of experiment: LanthaScreen Europium Kinase Binding assay, DDR2. The note with it: 5 nM DDR2, 10 nM Kinase Tracer 178, 1 h at rt; Ki from IC50 by Cheng-Prusoff; read-out: Ki DDR2. On the procedure:
as §1

T1 sequence (Q08345 19-913): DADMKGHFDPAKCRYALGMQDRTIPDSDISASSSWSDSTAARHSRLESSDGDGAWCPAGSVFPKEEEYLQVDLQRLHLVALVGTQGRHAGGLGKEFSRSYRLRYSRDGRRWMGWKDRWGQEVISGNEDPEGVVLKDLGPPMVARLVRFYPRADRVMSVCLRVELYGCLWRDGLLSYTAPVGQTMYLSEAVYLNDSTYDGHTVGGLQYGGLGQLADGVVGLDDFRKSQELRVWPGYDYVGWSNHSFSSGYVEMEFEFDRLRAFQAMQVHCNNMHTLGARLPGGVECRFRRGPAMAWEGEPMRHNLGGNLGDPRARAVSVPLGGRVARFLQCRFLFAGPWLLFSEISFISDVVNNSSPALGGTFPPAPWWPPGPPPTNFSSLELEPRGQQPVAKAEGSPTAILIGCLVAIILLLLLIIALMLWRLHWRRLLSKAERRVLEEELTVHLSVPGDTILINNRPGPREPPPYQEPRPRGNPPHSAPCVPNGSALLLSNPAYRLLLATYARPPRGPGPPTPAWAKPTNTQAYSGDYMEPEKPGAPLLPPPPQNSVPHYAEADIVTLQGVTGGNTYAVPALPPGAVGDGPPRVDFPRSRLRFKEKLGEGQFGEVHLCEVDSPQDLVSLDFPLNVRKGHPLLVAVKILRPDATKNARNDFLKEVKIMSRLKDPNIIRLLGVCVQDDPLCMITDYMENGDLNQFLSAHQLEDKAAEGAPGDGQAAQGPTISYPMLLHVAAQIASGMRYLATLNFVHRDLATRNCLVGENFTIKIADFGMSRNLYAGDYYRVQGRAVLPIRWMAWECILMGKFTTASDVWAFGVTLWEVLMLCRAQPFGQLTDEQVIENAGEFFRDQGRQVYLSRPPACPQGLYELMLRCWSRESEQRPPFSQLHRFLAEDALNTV

Turning to `O=C(Nc1cccc(C(F)(F)F)c1)NC1CC2(C1)CN(c1ccnc3[nH]ncc13)C2` [Example 15, 1-(2-(1H-pyrazolo[3,4-b]pyridin-4-yl)-2-azaspiro[3.3]heptan-6-yl)-3-(3-(trifluoromethyl)phenyl)urea], the Ki on DDR1 and at DDR2 was under 5 nM each time.

Take `O=C(Nc1cc(F)cc(C(F)(F)F)c1)NC1CC2(C1)CN(C(=O)c1cnn3ccncc13)C2` [Example 16, 1-(3-fluoro-5-(trifluoromethyl)phenyl)-3-(2-(pyrazolo[1,5-a]pyrazine-3-carbonyl)-2-azaspiro[3.3]heptan-6-yl)urea]: the Ki on DDR1 is under 5 nM; at DDR2, 5 to 25 nM.

In the case of `O=C(Nc1cc(C(F)(F)F)ccc1F)NC1CC2(C1)CN(C(=O)c1cnn3ccncc13)C2` [Example 17, 1-(2-fluoro-5-(trifluoromethyl)phenyl)-3-(2-(pyrazolo[1,5-a]pyrazine-3-carbonyl)-2-azaspiro[3.3]heptan-6-yl)urea], the Ki on DDR1 was under 5 nM; on DDR2, 5 to 25 nM.

As for `CC(C)(C)c1cc(NC(=O)NC2CC3(C2)CN(C(=O)c2cnn4ccncc24)C3)no1` [Example 18, 1-(5-(tert-butyl)isoxazol-3-yl)-3-(2-(pyrazolo[1,5-a]pyrazine-3-carbonyl)-2-azaspiro[3.3]heptan-6-yl)urea], the Ki fell in the range of 5 to 25 nM at DDR1 and 25 to 100 nM on DDR2.

For the compound `N#Cc1cc(NC(=O)NC2CC3(C2)CN(C(=O)c2cnn4ccncc24)C3)cc(C(F)(F)F)c1` [Example 19, 1-(3-cyano-5-(trifluoromethyl)phenyl)-3-(2-(pyrazolo[1,5-a]pyrazine-3-carbonyl)-2-azaspiro[3.3]heptan-6-yl)urea], the Ki at DDR1 and on DDR2 was under 5 nM throughout.

On to `CC(C)(C)c1cc(NC(=O)NC2CC3(C2)CN(C(=O)c2cnn4ccsc24)C3)no1` [Example 20, 1-(5-(tert-butyl)isoxazol-3-yl)-3-(2-(pyrazolo[5,1-b]thiazole-7-carbonyl)-2-azaspiro[3.3]heptan-6-yl)urea], for which the Ki on DDR1 is under 5 nM; on DDR2, 5 to 25 nM.

For `O=C(Nc1cccc(OC(F)(F)F)c1)NC1CC2(C1)CN(C(=O)c1cnn3ccsc13)C2` [Example 21, 1-(2-(pyrazolo[5,1-b]thiazole-7-carbonyl)-2-azaspiro[3.3]heptan-6-yl)-3-(3-(trifluoromethoxy)phenyl)urea], the Ki at DDR1 and at DDR2 was under 5 nM each time.

On to `O=C(Nc1cncc(C(F)(F)F)c1)NC1CC2(C1)CN(C(=O)c1cnn3ccsc13)C2` [Example 22, 1-(2-(pyrazolo[5,1-b]thiazole-7-carbonyl)-2-azaspiro[3.3]heptan-6-yl)-3-(5-(trifluoromethyl)pyridin-3-yl)urea], for which the Ki on DDR1 is under 5 nM; at DDR2, 5 to 25 nM.

Consider `COc1ccc(OC(F)(F)F)cc1NC(=O)NC1CC2(C1)CN(C(=O)c1cnn3ccsc13)C2` [Example 23, 1-(2-methoxy-5-(trifluoromethoxy)phenyl)-3-(2-(pyrazolo[5,1-b]thiazole-7-carbonyl)-2-azaspiro[3.3]heptan-6-yl)urea], for which the Ki on DDR1 and at DDR2 was under 5 nM each time.

With `CN(C)Cc1ccc(NC(=O)NC2CC3(C2)CN(C(=O)c2cnn4ccsc24)C3)cc1C(F)(F)F` [Example 24, 1-(4-((dimethylamino)methyl)-3-(trifluoromethyl)phenyl)-3-(2-(pyrazolo[5,1-b]thiazole-7-carbonyl)-2-azaspiro[3.3]heptan-6-yl)urea], the results for the Ki on DDR1 and on DDR2 were under 5 nM and 5 to 25 nM, respectively.

Take `CN(C(=O)Nc1cccc(C(F)(F)F)c1)C1CC2(C1)CN(C(=O)c1cnn3ccncc13)C2` [Example 25, 1-methyl-1-(2-(pyrazolo[1,5-a]pyrazine-3-carbonyl)-2-azaspiro[3.3]heptan-6-yl)-3-(3-(trifluoromethyl)phenyl)urea]: the Ki fell in the range of 5 to 25 nM on DDR1 and 25 to 100 nM on DDR2.

In the case of `O=C(CC1CC2(C1)CN(C(=O)c1cnn3ccsc13)C2)Nc1cccc(C(F)(F)F)c1` [Example 27, 2-(2-(pyrazolo[5,1-b]thiazole-7-carbonyl)-2-azaspiro[3.3]heptan-6-yl)-N-(3-(trifluoromethyl)phenyl)acetamide], the Ki on DDR1 and on DDR2 was under 5 nM each time.

`O=C(CC1CC2(C1)CN(C(=O)c1cnc3ccccn13)C2)Nc1cccc(C(F)(F)F)c1` [Example 28, 2-(2-(imidazo[1,2-a]pyridine-3-carbonyl)-2-azaspiro[3.3]heptan-6-yl)-N-(3-(trifluoromethyl)phenyl)acetamide]: the values for the Ki on DDR1 and at DDR2 were under 5 nM and 5 to 25 nM, respectively.

Consider `O=C(Nc1cccc(CC(F)(F)F)c1)NC1CC2(C1)CN(C(=O)c1cnn3ccsc13)C2` [Example 31, 1-(2-(pyrazolo[5,1-b]thiazole-7-carbonyl)-2-azaspiro[3.3]heptan-6-yl)-3-(3-(2,2,2-trifluoroethyl)phenyl)urea], for which the Ki on DDR1 and on DDR2 was under 5 nM each time.

For the compound `Nc1cccn2ncc(C(=O)N3CC4(CC(NC(=O)Nc5cccc(C(F)(F)F)c5)C4)C3)c12` [Example 32, 1-(2-(4-aminopyrazolo[1,5-a]pyridine-3-carbonyl)-2-azaspiro [3.3]heptan-6-yl)-3-(3-(trifluoromethyl)phenyl)urea], the inhibition constant (Ki) on DDR1 was under 5 nM; on DDR2, 5 to 25 nM.

`COc1cccc(NC(=O)NC2CC3(C2)CN(C(=O)c2cnn4ccsc24)C3)c1` [Example 33, 1-(3-methoxyphenyl)-3-(2-(pyrazolo[5,1-b]thiazole-7-carbonyl)-2-azaspiro[3.3]heptan-6-yl)urea]: the Ki was 5 to 25 nM at DDR1 and over 100 nM on DDR2.

For the compound `Cn1ccn2ncc(C(=O)N3CC4(CC(NC(=O)Nc5cccc(CC(F)(F)F)c5)C4)C3)c12` [Example 34, 1-(2-(1-methyl-1H-imidazo[1,2-b]pyrazole-7-carbonyl)-2-azaspiro[3.3]heptan-6-yl)-3-(3-(2,2,2-trifluoroethyl)phenyl)urea], the inhibitory constant (Ki) at DDR1 and on DDR2 was under 5 nM each time.

`CC(C)c1cncc(NC(=O)NC2CC3(C2)CN(C(=O)c2cnn4ccsc24)C3)c1` [Example 35, 1-(5-isopropylpyridin-3-yl)-3-(2-(pyrazolo[5,1-b]thiazole-7-carbonyl)-2-azaspiro[3.3]heptan-6-yl)urea]: the Ki at DDR1 was under 5 nM; on DDR2, 5 to 25 nM.

Consider `COc1ccc(OC(F)(F)F)cc1NC(=O)NC1CC2(C1)CN(C(=O)c1cnn3ccn(C)c13)C2` [Example 36, 1-(2-methoxy-5-(trifluoromethoxy)phenyl)-3-(2-(1-methyl-1H-imidazo[1,2-b]pyrazole-7-carbonyl)-2-azaspiro[3.3]heptan-6-yl)urea], for which the Ki on DDR1 is under 5 nM; on DDR2, 5 to 25 nM.

Turning to `Cn1ccn2ncc(C(=O)N3CC4(CC(NC(=O)Nc5cncc(C(F)(F)F)c5)C4)C3)c12` [Example 37, 1-(2-(1-methyl-1H-imidazo[1,2-b]pyrazole-7-carbonyl)-2-azaspiro [3.3]heptan-6-yl)-3-(5-(trifluoromethyl)pyridin-3-yl)urea], the Ki is under 5 nM at DDR1 and 5 to 25 nM on DDR2.

As for `COc1ccc(Cl)cc1NC(=O)NC1CC2(C1)CN(C(=O)c1cnn3ccn(C)c13)C2` [Example 38, 1-(5-chloro-2-methoxyphenyl)-3-(2-(1-methyl-1H-imidazo[1,2-b]pyrazole-7-carbonyl)-2-azaspiro[3.3]heptan-6-yl)urea], the Ki at DDR1 was under 5 nM; at DDR2, 5 to 25 nM.

For `Cn1ccn2ncc(C(=O)N3CC4(CC(NC(=O)Nc5cc(C#N)cc(C(F)(F)F)c5)C4)C3)c12` [Example 39, 1-(3-cyano-5-(trifluoromethyl)phenyl)-3-(2-(1-methyl-1H-imidazo[1,2-b]pyrazole-7-carbonyl)-2-azaspiro[3.3]heptan-6-yl)urea], the Ki on DDR1 and on DDR2 was under 5 nM in each case.

Take `O=C(Nc1cccc(C(F)(F)F)c1)NC1CC2(C1)CN(C(=O)c1cnn3ccccc13)C2` [Example 40, 1-(2-(pyrazolo[1,5-a]pyridine-3-carbonyl)-2-azaspiro[3.3]heptan-6-yl)-3-(3-(trifluoromethyl)phenyl)urea]: the Ki on DDR1 and at DDR2 was under 5 nM in each case.

With `O=C(Nc1cc(CO)cc(C(F)(F)F)c1)NC1CC2(C1)CN(C(=O)c1cnn3ccsc13)C2` [Example 41, 1-(3-(hydroxymethyl)-5-(trifluoromethyl)phenyl)-3-(2-(pyrazolo[5,1-b]thiazole-7-carbonyl)-2-azaspiro[3.3]heptan-6-yl)urea], the results for the Ki on DDR1 and on DDR2 were under 5 nM and 5 to 25 nM, respectively.
